Reference: PubChem BioAssay AID1963985 (Molecular Pharmacology Branch, DTP, NCI, 2024)
pIC50: −log10 of the molar value. One block for each compound: values may come before it.

System: 252836-082-R-J2-PDC tumor spheroids, viability
Test: Anticancer human tumor 252836-082-R-J2-PDC patient-derived head and neck squamous cell carcinoma cell line growth inhibition [PI3K]
Details: spheroids with HUVEC and MSC; for pIC50: curve of first compound; for viability, T/C: stronger effect = lower value
In short: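 Targeted small molecules plus PI3K inhibitors, half-log dose series from Cmax (default top 10 microM), were applied to heterotypic spheroids of cancer cells with HUVEC and MSCs. Viability indicated growth inhibition.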

[1] = second compound 0.00316 µM, first compound 0.0316 µM
[2] = second compound 0.00316 µM, first compound 0.1 µM
[3] = second compound 0.00316 µM, first compound 0.316 µM
[4] = second compound 0.00316 µM, first compound 1 µM
[5] = second compound 0.00316 µM, first compound 3.16 µM
[6] = second compound 0.00316 µM, first compound 10 µM
[7] = second compound 0.01 µM, first compound 0.0316 µM
[8] = second compound 0.01 µM, first compound 0.1 µM
[9] = second compound 0.01 µM, first compound 0.316 µM
[10] = second compound 0.01 µM, first compound 1 µM
[11] = second compound 0.01 µM, first compound 3.16 µM
[12] = second compound 0.01 µM, first compound 10 µM
[13] = second compound 0.0316 µM, first compound 0.0316 µM
[14] = second compound 0.0316 µM, first compound 0.1 µM
[15] = second compound 0.0316 µM, first compound 0.316 µM
[16] = second compound 0.0316 µM, first compound 1 µM
[17] = second compound 0.0316 µM, first compound 3.16 µM
[18] = second compound 0.0316 µM, first compound 10 µM
[19] = second compound 0.1 µM, first compound 0.0316 µM
[20] = second compound 0.1 µM, first compound 0.1 µM
[21] = second compound 0.1 µM, first compound 0.316 µM
[22] = second compound 0.1 µM, first compound 1 µM
[23] = second compound 0.1 µM, first compound 3.16 µM
[24] = second compound 0.1 µM, first compound 10 µM
[25] = second compound 0.316 µM, first compound 0.0316 µM
[26] = second compound 0.316 µM, first compound 0.1 µM
[27] = second compound 0.316 µM, first compound 0.316 µM
[28] = second compound 0.316 µM, first compound 1 µM
[29] = second compound 0.316 µM, first compound 3.16 µM
[30] = second compound 0.316 µM, first compound 10 µM
[31] = second compound 1 µM, first compound 0.0316 µM
[32] = second compound 1 µM, first compound 0.1 µM
[33] = second compound 1 µM, first compound 0.316 µM
[34] = second compound 1 µM, first compound 1 µM
[35] = second compound 1 µM, first compound 3.16 µM
[36] = second compound 1 µM, first compound 10 µM
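Further: spheroids exposed to agents for seven days before readout.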
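Wherever viability, T/C is given: percent of vehicle DMSO control viability so 100% = untreated growth.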

- pIC50 (second compound 0.00316 µM): 5.24
- pIC50 (second compound 0.01 µM): 5.28
- pIC50 (second compound 0.0316 µM): 5.49
- pIC50 (second compound 0.1 µM): > 7.50
- pIC50 (second compound 0.316 µM): > 7.50
- pIC50 (second compound 1 µM): > 7.50
Structure (SMILES): CC1(C)CCC(CN2CCN(c3ccc(C(=O)NS(=O)(=O)c4ccc(NCC5CCOCC5)c([N+](=O)[O-])c4)c(Oc4cnc5[nH]ccc5c4)c3)CC2)=C(c2ccc(Cl)cc2)C1 + COc1c(OCCCN2CCOCC2)ccc2c3n(c(=NC(=O)c4cnc(N)nc4)nc12)CCN3
- viability, T/C [1]: 89.7%
- viability, T/C [2]: 89.2%
- viability, T/C [3]: 89.3%
- viability, T/C [4]: 83.9%
- viability, T/C [5]: 80.7%
- viability, T/C [6]: 23%
- viability, T/C [7]: 75.8%
- viability, T/C [8]: 67.3%
- viability, T/C [9]: 76.2%
- viability, T/C [10]: 84.8%
- viability, T/C [11]: 80.4%
- viability, T/C [12]: 15.9%
- viability, T/C [13]: 59.2%
- viability, T/C [14]: 56%
- viability, T/C [15]: 53.3%
- viability, T/C [16]: 58.9%
- viability, T/C [17]: 50.2%
- viability, T/C [18]: 13.9%
- viability, T/C [19]: 35.9%
- viability, T/C [20]: 35.8%
- viability, T/C [21]: 37%
- viability, T/C [22]: 35.3%
- viability, T/C [23]: 45.2%
- viability, T/C [24]: 14.2%
- viability, T/C [25]: 17.2%
- viability, T/C [26]: 16.5%
- viability, T/C [27]: 15.8%
- viability, T/C [28]: 16.9%
- viability, T/C [29]: 17.1%
- viability, T/C [30]: 5.65%
- viability, T/C [31]: 5.01%
- viability, T/C [32]: 3.96%
- viability, T/C [33]: 4.59%
- viability, T/C [34]: 3.64%
- viability, T/C [35]: 4.04%
- viability, T/C [36]: 1.11%

- pIC50 (second compound 0.00316 µM): < 5.00
- pIC50 (second compound 0.01 µM): < 5.00
- pIC50 (second compound 0.0316 µM): < 5.00
- pIC50 (second compound 0.1 µM): > 7.50
- pIC50 (second compound 0.316 µM): > 7.50
- pIC50 (second compound 1 µM): > 7.50
Structure (SMILES): C[C@@H](NC(=O)c1ncnc(N)c1Cl)c1ncc(C(=O)Nc2cc(C(F)(F)F)c(Cl)cn2)s1 + COc1c(OCCCN2CCOCC2)ccc2c3n(c(=NC(=O)c4cnc(N)nc4)nc12)CCN3
- viability, T/C [1]: 89.6%
- viability, T/C [2]: 77.8%
- viability, T/C [3]: 104%
- viability, T/C [4]: 84.7%
- viability, T/C [5]: 94.5%
- viability, T/C [6]: 85.8%
- viability, T/C [7]: 81%
- viability, T/C [8]: 71.4%
- viability, T/C [9]: 79.5%
- viability, T/C [10]: 77.5%
- viability, T/C [11]: 72.4%
- viability, T/C [12]: 84.2%
- viability, T/C [13]: 69.6%
- viability, T/C [14]: 66.1%
- viability, T/C [15]: 80.5%
- viability, T/C [16]: 56%
- viability, T/C [17]: 62.1%
- viability, T/C [18]: 59.6%
- viability, T/C [19]: 37.6%
- viability, T/C [20]: 39.1%
- viability, T/C [21]: 39.9%
- viability, T/C [22]: 37%
- viability, T/C [23]: 43.3%
- viability, T/C [24]: 32.1%
- viability, T/C [25]: 18.4%
- viability, T/C [26]: 16.6%
- viability, T/C [27]: 21%
- viability, T/C [28]: 17.7%
- viability, T/C [29]: 17.2%
- viability, T/C [30]: 9.8%
- viability, T/C [31]: 5.39%
- viability, T/C [32]: 5.07%
- viability, T/C [33]: 5.62%
- viability, T/C [34]: 6.77%
- viability, T/C [35]: 5.91%
- viability, T/C [36]: 1.42%

- pIC50 (second compound 0.00316 µM): 7.04
- pIC50 (second compound 0.01 µM): 7.36
- pIC50 (second compound 0.0316 µM): 7.89
- pIC50 (second compound 0.1 µM): > 9.50
- pIC50 (second compound 0.316 µM): > 9.50
- pIC50 (second compound 1 µM): > 9.50
Structure (SMILES): Cn1ncnc1[C@H]1c2n[nH]c(=O)c3cc(F)cc(c23)N[C@@H]1c1ccc(F)cc1 + COc1c(OCCCN2CCOCC2)ccc2c3n(c(=NC(=O)c4cnc(N)nc4)nc12)CCN3
- viability, T/C (second compound 0.00316 µM, first compound 0.000316 µM): 84.3%
- viability, T/C (second compound 0.00316 µM, first compound 0.001 µM): 88.2%
- viability, T/C (second compound 0.00316 µM, first compound 0.00316 µM): 86.4%
- viability, T/C (second compound 0.00316 µM, first compound 0.01 µM): 72.1%
- viability, T/C [1]: 59.7%
- viability, T/C [2]: 48.6%
- viability, T/C (second compound 0.01 µM, first compound 0.000316 µM): 80.1%
- viability, T/C (second compound 0.01 µM, first compound 0.001 µM): 67.5%
- viability, T/C (second compound 0.01 µM, first compound 0.00316 µM): 80.7%
- viability, T/C (second compound 0.01 µM, first compound 0.01 µM): 72.8%
- viability, T/C [7]: 55.6%
- viability, T/C [8]: 36.2%
- viability, T/C (second compound 0.0316 µM, first compound 0.000316 µM): 49.3%
- viability, T/C (second compound 0.0316 µM, first compound 0.001 µM): 60.8%
- viability, T/C (second compound 0.0316 µM, first compound 0.00316 µM): 52%
- viability, T/C (second compound 0.0316 µM, first compound 0.01 µM): 52.1%
- viability, T/C [13]: 44.2%
- viability, T/C [14]: 24.4%
- viability, T/C (second compound 0.1 µM, first compound 0.000316 µM): 33.4%
- viability, T/C (second compound 0.1 µM, first compound 0.001 µM): 35.1%
- viability, T/C (second compound 0.1 µM, first compound 0.00316 µM): 34.8%
- viability, T/C (second compound 0.1 µM, first compound 0.01 µM): 30.9%
- viability, T/C [19]: 19%
- viability, T/C [20]: 11.8%
- viability, T/C (second compound 0.316 µM, first compound 0.000316 µM): 19.1%
- viability, T/C (second compound 0.316 µM, first compound 0.001 µM): 16%
- viability, T/C (second compound 0.316 µM, first compound 0.00316 µM): 13.6%
- viability, T/C (second compound 0.316 µM, first compound 0.01 µM): 9.81%
- viability, T/C [25]: 8.53%
- viability, T/C [26]: 6.35%
- viability, T/C (second compound 1 µM, first compound 0.000316 µM): 4.84%
- viability, T/C (second compound 1 µM, first compound 0.001 µM): 4.33%
- viability, T/C (second compound 1 µM, first compound 0.00316 µM): 3.36%
- viability, T/C (second compound 1 µM, first compound 0.01 µM): 2.93%
- viability, T/C [31]: 1.98%
- viability, T/C [32]: 2.41%
